Source: publication PMC4669759 (Cell Death & Disease, 2015)

Columns and labels:
[1] = tested on: RS4;11 cell line; experiment: Cell viability, RS4;11 cells; assay type: cell-based; conditions: RS4;11, 48 h
Procedure: (§1) Figure 4 Indole-2-carboxylic acids induce the hallmarks of apoptosis in MCL-1-dependent cancer cell line H929. (a) Digitonin-permeabilized H929 cells were treated with 10 μM BH3 peptides for 4 h, and intact H929 cells were incubated with increasing concentrations (0.1–10 μM) of A-1208746 for 4 h before assessing the levels of cytochrome c released into the cytosol. (b) H929 and RS4;11 cells were incubated with increasing concentrations of MCL-1 inhibitors or the BCL-2-selective inhibitor ABT-199 (venetoclax) for 48 h before determining cell viability. Cell killing IC50s are plotted with each value representing the mean of three separate experiments. Error bars represent the S.E.M. (c) H929 cells were incubated with increasing concentrations of MCL-1 inhibitors in the presence or absence of the pan-caspase inhibitor QVD (100 μM) for 4 h before assessing caspase-3/-7 activation, mitochondrial membrane polarization, and the exposure of phosphatidylserine. […]
Adherent cell lines were seeded at 50 000 cells per well in 96-well plates and treated for 48 h with compounds diluted in half-log steps starting at 30 μM and ending at 0.001 μM. […] Effects on proliferation and viability were determined using CellTiter-Glo reagent from Promega (Madison, WI, USA) according to the manufacturer's instructions. IC50 values were determined by non-linear regression analysis of the concentration response data.

[2] = tested on: H929 cells; experiment: Hallmarks of apoptosis in H929 cells (caspase-3/-7, mitochondrial membrane depolarization, phosphatidylserine); assay type: cell-based, human; conditions: H929, 4 h
Procedure: as §1, with “experiments.” for “experiments. Error bars represent the S.E.M. (c) H929 cells were incubated with increasing concentrations of MCL-1 inhibitors in the presence or absence of the pan-caspase inhibitor QVD (100 μM) for 4 h before assessing caspase-3/-7 activation, mitochondrial membrane polarization, and the exposure of phosphatidylserine.”
H929 cells were cultured in RPMI 1640 (Invitrogen Corp., Grand Island, NY, USA) supplemented with 10% fetal bovine serum (Invitrogen), 1% sodium pyruvate, 25 mM HEPES, 4.5 g/l glucose, and 1% penicillin/streptomycin (Sigma) and maintained in a humidified chamber at 37 °C containing 5% CO2. […] Following treatment, the hallmarks of apoptosis (activation of caspase-3/-7, mitochondrial membrane depolarization, and phosphatidylserine externalization) were measured using the IntelliCyt (Albuquerque, NM, USA) MultiCyt 4-Plex Apoptosis Screening Kit according to the manufacturer's instructions and read by flow cytometry using a HTFC screening system (IntelliCyt). […] Data were expressed as the percentage of singlet cells. […]

[3] = tested on: H23 cells; experiment: Cell viability, H23 cells; assay type: cell-based, human
Procedure: Figure 5 A-1210477 kills MCL-1-dependent NSCLC cancer cell lines. NSCLC cell lines (a) H2110 or (c) H23 were transfected with a construct expressing the MCL1 CDS tagged with a Flag epitope or empty control vector. These cells were subsequently transfected with siRNAs targeting the MCL1 CDS, the MCL1 3′ UTRa or UTRb, or a scrambled control sequence. Cell viability was assessed 72 h later with MCL-1 and Flag immunoblots performed in parallel. (b) H2110 or (d) H23 cells were treated with increasing concentrations of A-1210477 for 72 h before assessing cell viability.
(§2) Adherent cell lines were seeded at 50 000 cells per well in 96-well plates and treated for 48 h with compounds diluted in half-log steps starting at 30 μM and ending at 0.001 μM. Multiple myeloma cell lines were seeded at 15 000–20 000 cells per well and treated similarly. Effects on proliferation and viability were determined using CellTiter-Glo reagent from Promega (Madison, WI, USA) according to the manufacturer's instructions. IC50 values were determined by non-linear regression analysis of the concentration response data.

[4] = tested on: H23 cells; experiment: Navitoclax / A-1210477 combination cell viability, H23 cells; assay type: cell-based, human; conditions: H23, 48 h
Procedure: (§3) Figure 6 A-1210477 synergizes with navitoclax to kill hematological and solid tumor cell lines. BxPC-3, EJ-1, H23, and OPM-2 cells were treated with increasing concentrations of navitoclax in the presence or absence of increasing concentrations of A-1210477 for 48 h before assessing cell viability. All data points represent the means of triplicate experiments, with error bars indicating the S.E.M. TEXT PRINTED IN THE PICTURE: A-1210477 + navitoclax: Bliss sum (BxPC-3): 716; Bliss sum (EJ-1): 464; Bliss sum (H23): 76; Bliss sum (OPM-2): 946 DOUBTS OF THE COPYIST ABOUT THIS PICTURE: The Bliss sums apply to the combination of A-1210477 and navitoclax. The picture prints the two names separately (legend heading and axis title), not as one joined label.
as §2

[5] = tested on: OPM-2 cells; experiment: Navitoclax / A-1210477 combination cell viability, OPM-2 cells; assay type: cell-based; conditions: OPM-2, 48 h
Procedure: as §3, §2

Q: How did the “effect on cell viability” value [1] turn out when `Cc1nn(C)c(COc2ccc(N3CCN(S(=O)(=O)N(C)C)CC3)cc2)c1-c1cccc2c(CCCOc3cccc4ccccc34)c(C(=O)O)n(CCN3CCOCC3)c12` [A-1210477] was run?
A: Its value is “no effect”.

Q: What about the “induction of hallmarks of apoptosis (mitochondrial membrane depolarization, caspase-3/-7 activation, phosphatidylserine externalization)” value [2] of the same molecule?
A: The value was “induced the hallmarks of apoptosis”.

Q: And the IC50 ([3]; H23)?
A: The IC50 was less than 10 µM.

Q: And the EC50 ([3]; H23, 72 h)?
A: Its EC50 is 7.2 µM.

Q: And the potentiation of navitoclax [4]?
A: The potentiation of navitoclax was “substantially shifted the dose–response curve of navitoclax”.

Q: And the potentiation of navitoclax [5]?
A: Its potentiation of navitoclax is “substantially shifted the dose–response curve of navitoclax”.
